# From ChEMBL document CHEMBL1201862, “PubChem BioAssay data set” (2004)
#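 Growth conditions: 96-well plates. Treatment: test compound, 48 hours, 5 concentrations. Analysis: linear interpolation between bracketing concentrations; unreached endpoints set to highest concentration. GI50 marks 50% less growth.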 Calls of active or inactive are those of the source. No stated cut-off is given here; in the data, active = GI50 up to about 1.1 µM and inactive = higher.
# Key:
# Test in all cases: NCI tumour cell line growth inhibition, 48 h
# LOX IMVI = system: LOX IMVI
# NCI-H522 = system: NCI-H522
# HCT-116 = system: HCT-116
# SF-295 = system: SF-295
# UACC-62 = system: UACC-62
# MCF7 = system: MCF7
# SK-OV-3 = system: SK-OV-3
# NCI/ADR-RES = system: NCI/ADR-RES
# NCI-H226 = system: NCI-H226
# UO-31 = system: UO-31
# RXF 393 = system: RXF 393
# KM12 = system: KM12
# NCI-H460 = system: NCI-H460
# HCT-15 = system: HCT-15
# SNB-75 = system: SNB-75
# OVCAR-5 = system: OVCAR-5
# CCRF-CEM = system: CCRF-CEM
# SN12C = system: SN12C
# RPMI-8226 = system: RPMI-8226
# HT-29 = system: HT-29
Structure (SMILES),GI50 (LOX IMVI),GI50 (NCI-H522),GI50 (HCT-116),GI50 (SF-295),GI50 (UACC-62),GI50 (MCF7),GI50 (SK-OV-3),GI50 (NCI/ADR-RES),GI50 (NCI-H226),GI50 (UO-31),GI50 (RXF 393),GI50 (KM12),GI50 (NCI-H460),GI50 (HCT-15),GI50 (SNB-75),GI50 (OVCAR-5),GI50 (CCRF-CEM),GI50 (SN12C),GI50 (RPMI-8226),GI50 (HT-29)
C=CS(=O)(=O)c1c2cc(OC)ccc2nc2ccc(OC)cc12,2.21 µM (inactive),1.73 µM (inactive),2.11 µM (inactive),15 µM (inactive),12.2 µM (inactive),2.94 µM (inactive),17.7 µM (inactive),10.4 µM (inactive),15.6 µM (inactive),3.08 µM (inactive),3.99 µM (inactive),9.89 µM (inactive),5.12 µM (inactive),3.31 µM,12.4 µM (inactive),6.14 µM (inactive),3.22 µM (inactive),2.88 µM (inactive),2.37 µM (inactive),2.54 µM (inactive)
O=C1NCN(c2ccccc2)C12CCN(CCCSc1ccc(F)cc1)CC2,10.5 µM (inactive),> 83.9 µM (inactive),5.09 µM (inactive),39 µM (inactive),27.4 µM (inactive),5.3 µM (inactive),> 100 µM (inactive),> 48 µM (inactive),25.5 µM (inactive),48.5 µM (inactive),> 42 µM (inactive),30.2 µM (inactive),13 µM (inactive),31.1 µM,3.72 µM (inactive),16.9 µM (inactive),7 µM (inactive),21.4 µM (inactive),18.6 µM (inactive),3.85 µM (inactive)
CO/C=C1\OC(=O)C=C1OC,> 100 µM (inactive),> 100 µM (inactive),> 100 µM (inactive),> 100 µM (inactive),> 100 µM (inactive),> 100 µM (inactive),> 100 µM (inactive),> 100 µM (inactive),> 100 µM (inactive),> 100 µM (inactive),> 100 µM (inactive),> 100 µM (inactive),> 100 µM (inactive),> 100 µM,> 100 µM (inactive),> 100 µM (inactive),> 100 µM (inactive),> 100 µM (inactive),> 100 µM (inactive),> 100 µM (inactive)
CN(C)CCNC(=O)c1cccc2[nH]c(-c3ccc(Cl)cc3)nc12,4.42 µM (inactive),6.14 µM (inactive),3.28 µM (inactive),8.18 µM (inactive),5.53 µM (inactive),3.66 µM (inactive),11.4 µM (inactive),5.42 µM (inactive),4.59 µM (inactive),2.69 µM (inactive),8.57 µM (inactive),6.95 µM (inactive),3.12 µM (inactive),4.99 µM,4.4 µM (inactive),10.3 µM (inactive),6.21 µM (inactive),5.07 µM (inactive),2.76 µM (inactive),4.24 µM (inactive)
O=C1C2=C(C3=NCCc4c[nH]c1c43)c1c(Br)cc(Br)cc1CCN2,1.23 µM (inactive),1.66 µM (inactive),1.84 µM (inactive),2.42 µM (inactive),1.14 µM (inactive),1.8 µM (inactive),12.2 µM (inactive),4.71 µM (inactive),4.41 µM (inactive),6.22 µM (inactive),4.75 µM (inactive),2.56 µM (inactive),3.03 µM (inactive),2.21 µM,8.93 µM (inactive),4.19 µM (inactive),2.58 µM (inactive),2.28 µM (inactive),1.24 µM (inactive),2.45 µM (inactive)
C=CCOC1=C(OCC=C)C(C2COC(C)(C)O2)OC1=O (stereo not given),33.2 µM (inactive),22.1 µM (inactive),> 100 µM (inactive),> 100 µM (inactive),> 100 µM (inactive),> 100 µM (inactive),> 100 µM (inactive),> 100 µM (inactive),> 100 µM (inactive),> 100 µM (inactive),> 100 µM (inactive),> 100 µM (inactive),> 100 µM (inactive),> 100 µM,> 100 µM (inactive),> 100 µM (inactive),29.4 µM (inactive),> 100 µM (inactive),45.9 µM (inactive),> 100 µM (inactive)
CC(C)C1NC(=O)CC(c2ccccc2)N(N=O)C1c1ccccc1 (stereo not given),> 100 µM (inactive),37.5 µM (inactive),> 100 µM (inactive),> 100 µM (inactive),> 100 µM (inactive),> 100 µM (inactive),> 61.1 µM (inactive),> 100 µM (inactive),> 100 µM (inactive),> 100 µM (inactive),> 100 µM (inactive),> 100 µM (inactive),> 100 µM (inactive),> 100 µM,> 100 µM (inactive),> 100 µM (inactive),> 100 µM (inactive),> 100 µM (inactive),81.8 µM (inactive),> 100 µM (inactive)
O=C1C(Cl)=C(c2ccc([N+](=O)[O-])cc2)C(=O)c2c(O)cccc21,1.39 µM (inactive),0.292 µM (active),1.06 µM (active),2.7 µM (inactive),0.508 µM (active),4.88 µM (inactive),2.87 µM (inactive),2.39 µM (inactive),1.73 µM (inactive),1.92 µM (inactive),0.678 µM (active),1.11 µM (active),2.3 µM (inactive),0.614 µM,1.83 µM (inactive),2.24 µM (inactive),1.55 µM (inactive),2.96 µM (inactive),0.379 µM (active),2.72 µM (inactive)
Cc1nc(-c2cccnc2)sc1C(=O)CC(=O)C(=O)Nc1cccc(NC(=O)C(=O)CC(=O)c2sc(-c3cccnc3)nc2C)n1,> 100 µM (inactive),> 100 µM (inactive),> 100 µM (inactive),> 100 µM (inactive),> 100 µM (inactive),> 100 µM (inactive),> 100 µM (inactive),> 100 µM (inactive),> 100 µM (inactive),> 100 µM (inactive),> 100 µM (inactive),> 100 µM (inactive),> 100 µM (inactive),> 100 µM,68.5 µM (inactive),> 100 µM (inactive),> 100 µM (inactive),> 100 µM (inactive),> 100 µM (inactive),> 100 µM (inactive)
CC1(C)COC(/C=C/C2=NC(C)(C)CO2)=N1,3.25 µM (inactive),2.77 µM (inactive),10.6 µM (inactive),42.2 µM (inactive),15.1 µM (inactive),15.9 µM (inactive),> 100 µM (inactive),26.1 µM (inactive),20.9 µM (inactive),18.6 µM (inactive),16.3 µM (inactive),13.9 µM (inactive),67 µM (inactive),15.1 µM,> 100 µM (inactive),20.4 µM (inactive),7.59 µM (inactive),1.95 µM (inactive),10 µM (inactive),21.2 µM (inactive)
